Source: ChEMBL document CHEMBL4229438, “N-Acylhydrazones as drugs” (Bioorg Med Chem Lett, 2018)

Key:
[1] = molecular target: Muscarinic acetylcholine receptor M3 (Rattus norvegicus, UniProt P08483); test: Agonist activity at endothelial M3 receptor in Wistar-Kyoto rat thoracic aortic rings assessed as inhibition of phenylephrine-induced contraction; type: functional
[2] = Half life in patient with solid tumor at 230 mg/m2, iv treated for 30 mins by HPLC-MS analysis; type: ADME, organism-based; details: human, in vivo
Caspase-3 (Mus musculus) [3] = molecular target: T1, Caspase-3 (Mus musculus) (UniProt P70677); details: EL4, 5 uM
T1 sequence (whole entry): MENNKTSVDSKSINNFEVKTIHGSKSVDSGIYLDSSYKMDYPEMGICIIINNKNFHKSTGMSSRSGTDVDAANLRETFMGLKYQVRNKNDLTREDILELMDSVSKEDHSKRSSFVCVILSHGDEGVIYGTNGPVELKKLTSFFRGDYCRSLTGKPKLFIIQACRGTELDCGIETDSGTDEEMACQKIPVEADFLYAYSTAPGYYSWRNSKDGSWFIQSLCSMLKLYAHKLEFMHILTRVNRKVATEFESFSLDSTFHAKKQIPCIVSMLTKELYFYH
Description: Activation of procaspase-3 in mouse EL4 cells assessed as increase in cell death by measuring combination index at 5 uM after 24 hrs in presence of 2500 nM doxorubucin by alamar blue assay

Caspase-3 (Mus musculus) [4] = molecular target: T1, Caspase-3 (Mus musculus); details: EL4, 5 uM; remark: listed apart in the source
Description: Activation of procaspase-3 in mouse EL4 cells assessed as increase in cell death by measuring combination index at 5 uM after 24 hrs in presence of 1500 nM doxorubucin by alamar blue assay

Caspase-3 (Mus musculus) [5] = molecular target: T1, Caspase-3 (Mus musculus); details: EL4, 10 uM
Description: Activation of procaspase-3 in mouse EL4 cells assessed as increase in cell death by measuring combination index at 10 uM after 24 hrs in presence of 1000 nM doxorubucin by alamar blue assay

Caspase-3 (Mus musculus) [6] = molecular target: T1, Caspase-3 (Mus musculus); details: 2.5 uM
Description: Activation of procaspase-3 in mouse K7M2 cells assessed as increase in cell death by measuring combination index at 2.5 uM after 24 hrs in presence of 10 nM doxorubucin by alamar blue assay

Caspase-3 (Mus musculus) [7] = molecular target: T1, Caspase-3 (Mus musculus); details: 4T1, 2.5 uM
Description: Activation of procaspase-3 in mouse 4T1 cells assessed as increase in cell death by measuring combination index at 2.5 uM after 24 hrs in presence of 250 nM doxorubucin by alamar blue assay

Caspase-3 (Mus musculus) [8] = molecular target: T1, Caspase-3 (Mus musculus); details: 15 uM
Description: Activation of procaspase-3 in mouse B16F10 cells assessed as increase in cell death by measuring combination index at 15 uM after 24 hrs in presence of 100 nM doxorubucin by alamar blue assay

Caspase-3 (Mus musculus) [9] = molecular target: T1, Caspase-3 (Mus musculus); details: 2.5 uM; remark: listed apart in the source
Description: Activation of procaspase-3 in mouse 3LL cells assessed as increase in cell death by measuring combination index at 2.5 uM after 24 hrs in presence of 25 nM doxorubucin by alamar blue assay

Caspase-3 (Mus musculus) [10] = molecular target: T1, Caspase-3 (Mus musculus); details: 15 uM; remark: listed apart in the source
Description: Activation of procaspase-3 in mouse B16F10 cells assessed as increase in cell death by measuring combination index at 15 uM after 24 hrs in presence of 250 nM doxorubucin by alamar blue assay

Caspase-3 (Mus musculus) [11] = molecular target: T1, Caspase-3 (Mus musculus); details: 5 uM
Description: Activation of procaspase-3 in mouse K7M2 cells assessed as increase in cell death by measuring combination index at 5 uM after 24 hrs in presence of 250 nM doxorubucin by alamar blue assay

Caspase-3 (Mus musculus) [12] = molecular target: T1, Caspase-3 (Mus musculus); details: 4T1, 5 uM
Description: Activation of procaspase-3 in mouse 4T1 cells assessed as increase in cell death by measuring combination index at 5 uM after 24 hrs in presence of 250 nM doxorubucin by alamar blue assay

Caspase-3 (Mus musculus) [13] = molecular target: T1, Caspase-3 (Mus musculus); details: 7.5 uM
Description: Activation of procaspase-3 in mouse B16F10 cells assessed as increase in cell death by measuring combination index at 7.5 uM after 24 hrs in presence of 50 nM doxorubucin by alamar blue assay

Caspase-3 (Mus musculus) [14] = molecular target: T1, Caspase-3 (Mus musculus); details: 2.5 uM; remark: listed apart in the source
Description: Activation of procaspase-3 in mouse 3LL cells assessed as increase in cell death by measuring combination index at 2.5 uM after 24 hrs in presence of 100 nM doxorubucin by alamar blue assay

Caspase-3 (Mus musculus) [15] = molecular target: T1, Caspase-3 (Mus musculus); details: 4T1, 2.5 uM; remark: listed apart in the source
Description: Activation of procaspase-3 in mouse 4T1 cells assessed as increase in cell death by measuring combination index at 2.5 uM after 24 hrs in presence of 25 nM doxorubucin by alamar blue assay

Caspase-3 (Mus musculus) [16] = molecular target: T1, Caspase-3 (Mus musculus); details: EL4, 5 uM; remark: listed apart in the source
Description: Activation of procaspase-3 in mouse EL4 cells assessed as increase in cell death by measuring combination index at 5 uM after 24 hrs in presence of 1000 nM doxorubucin by alamar blue assay

Caspase-3 (Mus musculus) [17] = molecular target: T1, Caspase-3 (Mus musculus); details: 2.5 uM; remark: listed apart in the source
Description: Activation of procaspase-3 in mouse K7M2 cells assessed as increase in cell death by measuring combination index at 2.5 uM after 24 hrs in presence of 50 nM doxorubucin by alamar blue assay

Caspase-3 (Mus musculus) [18] = molecular target: T1, Caspase-3 (Mus musculus); details: EL4, 10 uM; remark: listed apart in the source
Description: Activation of procaspase-3 in mouse EL4 cells assessed as increase in cell death by measuring combination index at 10 uM after 24 hrs in presence of 2500 nM doxorubucin by alamar blue assay

Caspase-3 (Mus musculus) [19] = molecular target: T1, Caspase-3 (Mus musculus); details: 7.5 uM; remark: listed apart in the source
Description: Activation of procaspase-3 in mouse 3LL cells assessed as increase in cell death by measuring combination index at 7.5 uM after 24 hrs in presence of 100 nM doxorubucin by alamar blue assay

Caspase-3 (Mus musculus) [20] = molecular target: T1, Caspase-3 (Mus musculus); details: 4T1, 2.5 uM; remark: listed apart in the source
Description: Activation of procaspase-3 in mouse 4T1 cells assessed as increase in cell death by measuring combination index at 2.5 uM after 24 hrs in presence of 10 nM doxorubucin by alamar blue assay

Caspase-3 (Mus musculus) [21] = molecular target: T1, Caspase-3 (Mus musculus); details: 2.5 uM; remark: listed apart in the source
Description: Activation of procaspase-3 in mouse K7M2 cells assessed as increase in cell death by measuring combination index at 2.5 uM after 24 hrs in presence of 25 nM doxorubucin by alamar blue assay

Caspase-3 (Mus musculus) [22] = molecular target: T1, Caspase-3 (Mus musculus); details: EL4, 10 uM; remark: listed apart in the source
Description: Activation of procaspase-3 in mouse EL4 cells assessed as increase in cell death by measuring combination index at 10 uM after 24 hrs in presence of 500 nM doxorubucin by alamar blue assay

Caspase-3 (Mus musculus) [23] = molecular target: T1, Caspase-3 (Mus musculus); details: 4T1, 5 uM; remark: listed apart in the source
Description: Activation of procaspase-3 in mouse 4T1 cells assessed as increase in cell death by measuring combination index at 5 uM after 24 hrs in presence of 100 nM doxorubucin by alamar blue assay

Caspase-3 (Mus musculus) [24] = molecular target: T1, Caspase-3 (Mus musculus); details: 2.5 uM; remark: listed apart in the source
Description: Activation of procaspase-3 in mouse 3LL cells assessed as increase in cell death by measuring combination index at 2.5 uM after 24 hrs in presence of 50 nM doxorubucin by alamar blue assay

Caspase-3 (Mus musculus) [25] = molecular target: T1, Caspase-3 (Mus musculus); details: 7.5 uM; remark: listed apart in the source
Description: Activation of procaspase-3 in mouse 3LL cells assessed as increase in cell death by measuring combination index at 7.5 uM after 24 hrs in presence of 10 nM doxorubucin by alamar blue assay

Caspase-3 (Mus musculus) [26] = molecular target: T1, Caspase-3 (Mus musculus); details: EL4, 5 uM; remark: listed apart in the source
Description: Activation of procaspase-3 in mouse EL4 cells assessed as increase in cell death by measuring combination index at 5 uM after 24 hrs in presence of 100 nM doxorubucin by alamar blue assay

Caspase-3 (Mus musculus) [27] = molecular target: T1, Caspase-3 (Mus musculus); details: 7.5 uM; remark: listed apart in the source
Description: Activation of procaspase-3 in mouse 3LL cells assessed as increase in cell death by measuring combination index at 7.5 uM after 24 hrs in presence of 250 nM doxorubucin by alamar blue assay

Caspase-3 (Mus musculus) [28] = molecular target: T1, Caspase-3 (Mus musculus); details: 4T1, 5 uM; remark: listed apart in the source
Description: Activation of procaspase-3 in mouse 4T1 cells assessed as increase in cell death by measuring combination index at 5 uM after 24 hrs in presence of 10 nM doxorubucin by alamar blue assay

Caspase-3 (Mus musculus) [29] = molecular target: T1, Caspase-3 (Mus musculus); details: 2.5 uM; remark: listed apart in the source
Description: Activation of procaspase-3 in mouse 3LL cells assessed as increase in cell death by measuring combination index at 2.5 uM after 24 hrs in presence of 250 nM doxorubucin by alamar blue assay

Caspase-3 (Mus musculus) [30] = molecular target: T1, Caspase-3 (Mus musculus); details: 2.5 uM; remark: listed apart in the source
Description: Activation of procaspase-3 in mouse K7M2 cells assessed as increase in cell death by measuring combination index at 2.5 uM after 24 hrs in presence of 250 nM doxorubucin by alamar blue assay

Caspase-3 (Mus musculus) [31] = molecular target: T1, Caspase-3 (Mus musculus); details: 5 uM; remark: listed apart in the source
Description: Activation of procaspase-3 in mouse K7M2 cells assessed as increase in cell death by measuring combination index at 5 uM after 24 hrs in presence of 50 nM doxorubucin by alamar blue assay

Caspase-3 (Mus musculus) [32] = molecular target: T1, Caspase-3 (Mus musculus); details: EL4, 5 uM; remark: listed apart in the source
Description: Activation of procaspase-3 in mouse EL4 cells assessed as increase in cell death by measuring combination index at 5 uM after 24 hrs in presence of 500 nM doxorubucin by alamar blue assay

Caspase-3 (Mus musculus) [33] = molecular target: T1, Caspase-3 (Mus musculus); details: 4T1, 5 uM; remark: listed apart in the source
Description: Activation of procaspase-3 in mouse 4T1 cells assessed as increase in cell death by measuring combination index at 5 uM after 24 hrs in presence of 25 nM doxorubucin by alamar blue assay

Caspase-3 (Mus musculus) [34] = molecular target: T1, Caspase-3 (Mus musculus); details: 7.5 uM; remark: listed apart in the source
Description: Activation of procaspase-3 in mouse 3LL cells assessed as increase in cell death by measuring combination index at 7.5 uM after 24 hrs in presence of 25 nM doxorubucin by alamar blue assay

Caspase-3 (Mus musculus) [35] = molecular target: T1, Caspase-3 (Mus musculus); details: 15 uM; remark: listed apart in the source
Description: Activation of procaspase-3 in mouse B16F10 cells assessed as increase in cell death by measuring combination index at 15 uM after 24 hrs in presence of 10 nM doxorubucin by alamar blue assay

Caspase-3 (Mus musculus) [36] = molecular target: T1, Caspase-3 (Mus musculus); details: 7.5 uM; remark: listed apart in the source
Description: Activation of procaspase-3 in mouse B16F10 cells assessed as increase in cell death by measuring combination index at 7.5 uM after 24 hrs in presence of 250 nM doxorubucin by alamar blue assay

Caspase-3 (Mus musculus) [37] = molecular target: T1, Caspase-3 (Mus musculus); details: 5 uM; remark: listed apart in the source
Description: Activation of procaspase-3 in mouse K7M2 cells assessed as increase in cell death by measuring combination index at 5 uM after 24 hrs in presence of 100 nM doxorubucin by alamar blue assay

Caspase-3 (Mus musculus) [38] = molecular target: T1, Caspase-3 (Mus musculus); details: 5 uM; remark: listed apart in the source
Description: Activation of procaspase-3 in mouse K7M2 cells assessed as increase in cell death by measuring combination index at 5 uM after 24 hrs in presence of 25 nM doxorubucin by alamar blue assay

Caspase-3 (Mus musculus) [39] = molecular target: T1, Caspase-3 (Mus musculus); details: EL4, 10 uM; remark: listed apart in the source
Description: Activation of procaspase-3 in mouse EL4 cells assessed as increase in cell death by measuring combination index at 10 uM after 24 hrs in presence of 100 nM doxorubucin by alamar blue assay

Caspase-3 (Mus musculus) [40] = molecular target: T1, Caspase-3 (Mus musculus); details: 15 uM; remark: listed apart in the source
Description: Activation of procaspase-3 in mouse B16F10 cells assessed as increase in cell death by measuring combination index at 15 uM after 24 hrs in presence of 50 nM doxorubucin by alamar blue assay

Caspase-3 (Mus musculus) [41] = molecular target: T1, Caspase-3 (Mus musculus); details: EL4, 10 uM; remark: listed apart in the source
Description: Activation of procaspase-3 in mouse EL4 cells assessed as increase in cell death by measuring combination index at 10 uM after 24 hrs in presence of 1500 nM doxorubucin by alamar blue assay

Caspase-3 (Mus musculus) [42] = molecular target: T1, Caspase-3 (Mus musculus); details: 2.5 uM; remark: listed apart in the source
Description: Activation of procaspase-3 in mouse 3LL cells assessed as increase in cell death by measuring combination index at 2.5 uM after 24 hrs in presence of 10 nM doxorubucin by alamar blue assay

Caspase-3 (Mus musculus) [43] = molecular target: T1, Caspase-3 (Mus musculus); details: 7.5 uM; remark: listed apart in the source
Description: Activation of procaspase-3 in mouse B16F10 cells assessed as increase in cell death by measuring combination index at 7.5 uM after 24 hrs in presence of 100 nM doxorubucin by alamar blue assay

Caspase-3 (Mus musculus) [44] = molecular target: T1, Caspase-3 (Mus musculus); details: 2.5 uM; remark: listed apart in the source
Description: Activation of procaspase-3 in mouse K7M2 cells assessed as increase in cell death by measuring combination index at 2.5 uM after 24 hrs in presence of 100 nM doxorubucin by alamar blue assay

Caspase-3 (Mus musculus) [45] = molecular target: T1, Caspase-3 (Mus musculus); details: 5 uM; remark: listed apart in the source
Description: Activation of procaspase-3 in mouse K7M2 cells assessed as increase in cell death by measuring combination index at 5 uM after 24 hrs in presence of 10 nM doxorubucin by alamar blue assay

Caspase-3 (Mus musculus) [46] = molecular target: T1, Caspase-3 (Mus musculus); details: 7.5 uM; remark: listed apart in the source
Description: Activation of procaspase-3 in mouse B16F10 cells assessed as increase in cell death by measuring combination index at 7.5 uM after 24 hrs in presence of 25 nM doxorubucin by alamar blue assay

Caspase-3 (Mus musculus) [47] = molecular target: T1, Caspase-3 (Mus musculus); details: 7.5 uM; remark: listed apart in the source
Description: Activation of procaspase-3 in mouse B16F10 cells assessed as increase in cell death by measuring combination index at 7.5 uM after 24 hrs in presence of 10 nM doxorubucin by alamar blue assay

Caspase-3 (Mus musculus) [48] = molecular target: T1, Caspase-3 (Mus musculus); details: 15 uM; remark: listed apart in the source
Description: Activation of procaspase-3 in mouse B16F10 cells assessed as increase in cell death by measuring combination index at 15 uM after 24 hrs in presence of 25 nM doxorubucin by alamar blue assay

Caspase-3 (Mus musculus) [49] = molecular target: T1, Caspase-3 (Mus musculus); details: 4T1, 5 uM; remark: listed apart in the source
Description: Activation of procaspase-3 in mouse 4T1 cells assessed as increase in cell death by measuring combination index at 5 uM after 24 hrs in presence of 50 nM doxorubucin by alamar blue assay

Caspase-3 (Mus musculus) [50] = molecular target: T1, Caspase-3 (Mus musculus); details: 7.5 uM; remark: listed apart in the source
Description: Activation of procaspase-3 in mouse 3LL cells assessed as increase in cell death by measuring combination index at 7.5 uM after 24 hrs in presence of 50 nM doxorubucin by alamar blue assay

Caspase-3 (Mus musculus) [51] = molecular target: T1, Caspase-3 (Mus musculus); details: 4T1, 2.5 uM; remark: listed apart in the source
Description: Activation of procaspase-3 in mouse 4T1 cells assessed as increase in cell death by measuring combination index at 2.5 uM after 24 hrs in presence of 100 nM doxorubucin by alamar blue assay

Caspase-3 (Mus musculus) [52] = molecular target: T1, Caspase-3 (Mus musculus); details: 4T1, 2.5 uM; remark: listed apart in the source
Description: Activation of procaspase-3 in mouse 4T1 cells assessed as increase in cell death by measuring combination index at 2.5 uM after 24 hrs in presence of 50 nM doxorubucin by alamar blue assay

OVCAR-8 = test: Cytotoxicity against human OVCAR8 cells; type: functional, cell-based
HCT-8 = test: Cytotoxicity against human HCT8 cells; type: functional, cell-based
HL-60 [53] = test: Cytotoxicity against human HL60 cells; type: functional, cell-based
Thoracic aorta = test: Vasodilatory activity in Wistar rat thoracic aortic rings assessed as inhibition of noradrenaline-induced contraction; type: functional, tissue-based
[54] = Stability in rat plasma assessed as parent compound remaining at 100 uM after 10 hrs by LC-MS analysis; type: ADME, cell-free; details: read-out: Stability
HL-60 [55] = test: Cytotoxicity against human HL60 cells by MTT assay; type: functional, cell-based

Muscarinic acetylcholine receptor M3, sequence (P08483 whole entry): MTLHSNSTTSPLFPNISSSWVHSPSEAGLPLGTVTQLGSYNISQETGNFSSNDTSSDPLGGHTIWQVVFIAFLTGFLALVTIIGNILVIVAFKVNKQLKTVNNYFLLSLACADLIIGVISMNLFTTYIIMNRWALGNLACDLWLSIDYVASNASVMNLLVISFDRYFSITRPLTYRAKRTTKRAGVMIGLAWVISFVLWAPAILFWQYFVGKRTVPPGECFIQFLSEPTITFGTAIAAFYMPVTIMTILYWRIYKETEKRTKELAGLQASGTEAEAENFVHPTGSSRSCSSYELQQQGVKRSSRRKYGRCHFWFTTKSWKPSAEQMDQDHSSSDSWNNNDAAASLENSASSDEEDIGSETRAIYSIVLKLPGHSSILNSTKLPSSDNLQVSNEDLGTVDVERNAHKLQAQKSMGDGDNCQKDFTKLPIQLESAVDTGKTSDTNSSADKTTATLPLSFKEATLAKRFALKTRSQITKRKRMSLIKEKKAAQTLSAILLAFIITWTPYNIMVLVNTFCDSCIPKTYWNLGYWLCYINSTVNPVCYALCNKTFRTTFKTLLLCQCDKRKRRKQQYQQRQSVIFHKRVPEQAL

Structure (SMILES): O=C(N/N=C/c1ccsc1)c1ccc2c(c1)OCO2
- IC50 [1]: 350 nM

Structure (SMILES): COc1cccc2c1C(=O)c1c(O)c3c(c(O)c1C2=O)C[C@@](O)(/C(CO)=N/NC(=O)CCCCCN1C(=O)C=CC1=O)C[C@@H]3OC1C[C@H](N)[C@H](O)[C@H](C)O1 (stereo partly drawn)
- half-life [2]: 1210 to 1270 min

Structure (SMILES): C=CCc1cccc(/C=N/NC(=O)CN2CCN(Cc3ccccc3)CC2)c1O
- CI (Caspase-3 (Mus musculus) [3]): 0.3 to 55.6
- CI (Caspase-3 (Mus musculus) [4]): 0.63 to 38
- CI (Caspase-3 (Mus musculus) [5]): 0.53 to 37
- CI (Caspase-3 (Mus musculus) [6]): 0.97 to 12.8
- CI (Caspase-3 (Mus musculus) [7]): 0.47 to 49.7
- CI (Caspase-3 (Mus musculus) [8]): 0.53 to 40.7
- CI (Caspase-3 (Mus musculus) [9]): 0.72 to 20.3
- CI (Caspase-3 (Mus musculus) [10]): 0.39 to 62.2
- CI (Caspase-3 (Mus musculus) [11]): 0.67 to 55.9
- CI (Caspase-3 (Mus musculus) [12]): 0.42 to 57.2
- CI (Caspase-3 (Mus musculus) [13]): 0.84 to 20.1
- CI (Caspase-3 (Mus musculus) [14]): 0.48 to 55.7
- CI (Caspase-3 (Mus musculus) [15]): 0.79 to 15
- CI (Caspase-3 (Mus musculus) [16]): 0.79 to 30.3
- CI (Caspase-3 (Mus musculus) [17]): 0.88 to 16.7
- CI (Caspase-3 (Mus musculus) [18]): 0.21 to 61.4
- CI (Caspase-3 (Mus musculus) [19]): 0.32 to 66.8
- CI (Caspase-3 (Mus musculus) [20]): 0.89 to 12.2
- CI (Caspase-3 (Mus musculus) [21]): 0.84 to 15.2
- CI (Caspase-3 (Mus musculus) [22]): 0.69 to 27.7
- CI (Caspase-3 (Mus musculus) [23]): 0.86 to 28
- CI (Caspase-3 (Mus musculus) [24]): 0.71 to 28.9
- CI (Caspase-3 (Mus musculus) [25]): 0.36 to 27.8
- CI (Caspase-3 (Mus musculus) [26]): 1.38 to 11.7
- CI (Caspase-3 (Mus musculus) [27]): 0.28 to 86.3
- CI (Caspase-3 (Mus musculus) [28]): 0.74 to 23.3
- CI (Caspase-3 (Mus musculus) [29]): 0.17 to 79.6
- CI (Caspase-3 (Mus musculus) [30]): 0.93 to 39.6
- CI (Caspase-3 (Mus musculus) [31]): 0.73 to 26.6
- CI (Caspase-3 (Mus musculus) [32]): 0.77 to 24
- CI (Caspase-3 (Mus musculus) [33]): 0.81 to 23.1
- CI (Caspase-3 (Mus musculus) [34]): 0.41 to 32.3
- CI (Caspase-3 (Mus musculus) [35]): 0.83 to 22.5
- CI (Caspase-3 (Mus musculus) [36]): 0.42 to 58.2
- CI (Caspase-3 (Mus musculus) [37]): 0.49 to 42.8
- CI (Caspase-3 (Mus musculus) [38]): 0.61 to 26.8
- CI (Caspase-3 (Mus musculus) [39]): 0.9 to 18.2
- CI (Caspase-3 (Mus musculus) [40]): 0.72 to 29
- CI (Caspase-3 (Mus musculus) [41]): 0.37 to 46.7
- CI (Caspase-3 (Mus musculus) [42]): 0.54 to 18.3
- CI (Caspase-3 (Mus musculus) [43]): 0.65 to 31
- CI (Caspase-3 (Mus musculus) [44]): 0.66 to 28.1
- CI (Caspase-3 (Mus musculus) [45]): 0.56 to 26.4
- CI (Caspase-3 (Mus musculus) [46]): 0.76 to 18.2
- CI (Caspase-3 (Mus musculus) [47]): 0.66 to 17.8
- CI (Caspase-3 (Mus musculus) [48]): 0.84 to 23.9
- CI (Caspase-3 (Mus musculus) [49]): 0.86 to 24.1
- CI (Caspase-3 (Mus musculus) [50]): 0.44 to 41.3
- CI (Caspase-3 (Mus musculus) [51]): 0.84 to 21.5
- CI (Caspase-3 (Mus musculus) [52]): 0.95 to 15.5

Structure (SMILES): COc1cc(C(=O)N/N=C/c2cc3ccccc3s2)cc(OC)c1OC
- IC50 (OVCAR-8): 9 nM
- IC50 (HCT-8): 5 nM
- IC50 (HL-60 [53]): 0.4 nM

Structure (SMILES): O=C(N/N=C/c1cccs1)c1ccc2c(c1)OCO2
- IC50 (Thoracic aorta): 74 µM

Structure (SMILES): O=C(N/N=C/c1ccccc1B(O)O)c1ccncc1
- remaining at 10 h, 100 µM [54]: > 93%

Structure (SMILES): COc1cc(C(=O)N(C)/N=C/c2ccccc2)cc(OC)c1OC
- IC50 (HL-60 [55]): 30 nM
